Test results published in patent publication US20250263774A1, “DISCOVERING NEW XENOBIOTIC SUBSTRATES OF AN UDP-GLYCOSYLTRANSFERASE WITH A HIGH-THROUGHPUT METHOD” (priority 2024, published 2025).

Experiments:
[1] = system: UGT71G1; assay: High-throughput fluorescent assay for screening candidates of UGT glycosylation (UDP release, MicroMolar UDP assay kit); format: biochemical, Medicago truncatula; conditions: 6 μg UGT71G1, UDP-glucose 50 μM, substrate candidate 0.8 to 160 μM, 37° C. 45 minutes, ex 485 nm / em 535 nm
Method: High-throughput fluorescent assay for screening candidates of UGT glycosylation. Characterization of UDP formation involved the MicroMolar UDP assay kit (ProFoldin). For each reaction, reagents used from this kit include 3 μL of 10× buffer, 0.3 μL of 100×MUD reagent 1, and 0.3 μL of 100×MUD reagent 2. […] Each sample was then mixed with 30 μL of 1× fluorescence dye from the MICROMOLAR UDP assay kit and fluorescence was measured immediately with a BIOTEK SYNERGY H1 M florescence microplate reader at excitation 485 nm and emission 535 nm.
For a high-through method to robustly detect UGT activities with different glycosyl acceptor, it is necessary to target a change that is independent from the acceptor molecule. UDP-glycosyltransferases take UDP-glucose as a co-substrate; while the glucosyl moiety is transferred to the acceptor molecule, UDP is released as a by-product (FIG. 1A). Thus, UGT activities can be detected by the rise in UDP level in the reaction mixture. In our method to monitor an increase in UDP concentration, the UGT71G1 enzymatic reaction was coupled to the UDP assay kit, in which the release of UDP leads to an increase in fluorescence intensity.

[2] = system: UGT71G1; assay: LC-MS/MS analysis of substrates and glycosylated products of the UGT71G1 reaction; format: biochemical, Medicago truncatula; conditions: for validation as UGT71G1 substrate (glycosylated product detected): substrate 10 μM, UDP-glucose 50 μM, pH 7.4, 37° C., 2 hours 3HF, 4 hours SN-38, 24 hours BPA
Method: Liquid chromatography-coupled mass spectrometric analysis of substrates and products. The glycosylation reaction for plant UGT71G1 enzyme extracted from E. coli BL21(DE3) cells containing UGT71G1-pET28a was performed similar to the glucuronidation reaction as those published previously 17 with minor modification. Briefly, the enzyme UGT71G1 (final concentration 0.05-0.5 μg/ml) was mixed with UDP-glucose (50 μM) and substrate (final concentration 10 μM) in 50 mM potassium phosphate buffer (pH 7.4) to reach a final volume of 200 μL. This reaction mixture was incubated at 37° C. and at various time points for each substrate to obtain the highest product-to-substrate ratio: 2 hours for 3HF, 4 hours for SN-38, and 24 hours for BPA; reactions were ended with the addition of 200 μL methanol. The samples were centrifuged at 14000 rpm for 15 mins and supernatant was subjected to UPLC-MS/MS system for analysis after appropriate dilution with 50% MeOH solution.
LC-MS/MS analysis was performed with an EXIONLC™ UHPLC system coupled with API 5500 Q-Trap triple quadrupole mass spectrometer. A BEH C18 column (50×2.1 mm I.D., 1.7 μm, Waters, Milford, MA, USA) was used for liquid chromatography. For mobile phase, mobile phase A (MPA) was 0.1% formic acid in water and mobile phase B (MPB) was 100% acetonitrile; flow rate was 0.45 mL/min with a column temperature of 45° C. An amount of 10 μL sample was injected for each analysis and it was eluted with the following mobile phase profile: 0-0.5 min, 5-10% MPB, 0.5-1.5 min, 10-40% MPB, 1.5-4.0 min, 40-90% MPB, 4.0-4.4 min, 90% MPB, 4.4-4.6 min, 90-5% MPB, 4.6-5.0 min, 5% MPB. Gradient mobile phase for mycophenolic acid and metabolites: 0-1.0 min, 5-20% MPB, 1.0-1.5 min, 20% MPB, 1.5-4.0 min, 20-40% MPB, 4.0-5.0 min, 40-90% MPB, 5.0-5.5 min, 90-5% MPB, 5.5-6.0 min, 5% MPB.
To validate our results from the high-throughput fluorescent assay, a liquid chromatography-coupled tandem mass spectrometric (LC-MS/MS) method was used to monitor the reaction of UGT71G1 with 3-hydroxyflavone, bisphenol A, and SN-38.

[3] = system: UGT71G1; conditions: previous studies; cited from earlier work
[4] = patients that administer irinotecan; SN-38 excreted into the intestines via bile; cited from earlier work

O=c1c(O)c(-c2ccccc2)oc2ccccc12 [Sample 26, 3-Hydroxyflavone]
fold increase in fluorescent signal / fluorescence intensity with UGT71G1, comparing to the condition without UGT71G1 [1]: 30 fold
validation as UGT71G1 substrate (glycosylated product detected) [2]: validated

CCc1c2c(nc3ccc(O)cc13)-c1cc3c(c(=O)n1C2)COC(=O)[C@]3(O)CC [Sample 58, 7-Ethyl-10-hydroxycamptothecin]
validation as UGT71G1 substrate (glycosylated product detected) [2]: validated

O=c1c(-c2ccc(O)cc2)coc2cc(O)cc(O)c12 [Sample 88, Genistein]
glycosylation of hydroxyl groups by UGT71G1 [3]: glycosylates multiple hydroxyl groups

COc1ccc(-c2coc3cc(O)cc(O)c3c2=O)cc1 [Sample 130, Biochanin A]
glycosylation of hydroxyl groups by UGT71G1 [3]: glycosylates multiple hydroxyl groups

CC(C)(c1ccc(O)cc1)c1ccc(O)cc1 [Sample 135, Bisphenol A]
products formed in the reaction catalyzed by UGT71G1 ([2]; BPA 10 μM, 24 hours, major monoglycosylated, minor diglycosylated): two products
validation as UGT71G1 substrate (glycosylated product detected) [2]: validated

CCc1c2c(nc3ccc(OC(=O)N4CCC(N5CCCCC5)CC4)cc13)-c1cc3c(c(=O)n1C2)COC(=O)[C@]3(O)CC [irinotecan]
patients experiencing diarrhea [4]: 25%
